The values that follow come from US5849690A, “Anti-aggregatory peptides” (SmithKline Beecham Corporation, priority 1992, dated 1998).

Positions of bridges follow the written chain, without caps; N, C: chain ends. Non-standard residues stand in square brackets, D forms with d. Residues, ends and D or L forms follow the SMILES beside them.

The target of the assay is T1, Platelet rich plasma, PRP (Canis lupus familiaris, UniProt A0A8I3N5G5+A0A8I3PMU9).
T1 sequence (A0A8I3N5G5 1-1047): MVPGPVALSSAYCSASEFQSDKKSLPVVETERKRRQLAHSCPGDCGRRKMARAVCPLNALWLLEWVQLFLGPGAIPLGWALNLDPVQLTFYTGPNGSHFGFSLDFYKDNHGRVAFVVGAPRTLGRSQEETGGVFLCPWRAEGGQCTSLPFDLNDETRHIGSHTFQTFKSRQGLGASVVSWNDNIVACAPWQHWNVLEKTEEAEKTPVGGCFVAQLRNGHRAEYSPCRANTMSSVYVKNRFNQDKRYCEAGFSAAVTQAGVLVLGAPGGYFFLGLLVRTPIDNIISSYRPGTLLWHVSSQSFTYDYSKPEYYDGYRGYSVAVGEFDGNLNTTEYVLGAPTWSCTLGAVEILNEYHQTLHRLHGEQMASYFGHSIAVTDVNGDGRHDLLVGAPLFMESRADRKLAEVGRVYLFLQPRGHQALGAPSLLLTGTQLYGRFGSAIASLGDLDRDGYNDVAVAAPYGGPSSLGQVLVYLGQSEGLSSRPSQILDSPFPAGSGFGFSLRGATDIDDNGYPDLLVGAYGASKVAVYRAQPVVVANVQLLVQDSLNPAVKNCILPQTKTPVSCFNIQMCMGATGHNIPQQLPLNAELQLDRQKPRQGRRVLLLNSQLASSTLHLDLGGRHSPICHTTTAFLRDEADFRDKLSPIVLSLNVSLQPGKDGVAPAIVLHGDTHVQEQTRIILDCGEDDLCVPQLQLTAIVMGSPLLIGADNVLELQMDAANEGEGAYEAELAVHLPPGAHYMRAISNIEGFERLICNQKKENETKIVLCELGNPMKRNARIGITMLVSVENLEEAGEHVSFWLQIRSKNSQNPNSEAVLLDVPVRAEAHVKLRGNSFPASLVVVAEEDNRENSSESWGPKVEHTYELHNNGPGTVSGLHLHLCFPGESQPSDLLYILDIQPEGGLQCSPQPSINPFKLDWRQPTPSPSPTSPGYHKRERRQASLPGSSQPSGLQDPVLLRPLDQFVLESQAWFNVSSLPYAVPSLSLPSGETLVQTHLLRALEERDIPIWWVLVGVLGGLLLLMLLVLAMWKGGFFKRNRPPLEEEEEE
T1 sequence (A0A8I3PMU9 1-919): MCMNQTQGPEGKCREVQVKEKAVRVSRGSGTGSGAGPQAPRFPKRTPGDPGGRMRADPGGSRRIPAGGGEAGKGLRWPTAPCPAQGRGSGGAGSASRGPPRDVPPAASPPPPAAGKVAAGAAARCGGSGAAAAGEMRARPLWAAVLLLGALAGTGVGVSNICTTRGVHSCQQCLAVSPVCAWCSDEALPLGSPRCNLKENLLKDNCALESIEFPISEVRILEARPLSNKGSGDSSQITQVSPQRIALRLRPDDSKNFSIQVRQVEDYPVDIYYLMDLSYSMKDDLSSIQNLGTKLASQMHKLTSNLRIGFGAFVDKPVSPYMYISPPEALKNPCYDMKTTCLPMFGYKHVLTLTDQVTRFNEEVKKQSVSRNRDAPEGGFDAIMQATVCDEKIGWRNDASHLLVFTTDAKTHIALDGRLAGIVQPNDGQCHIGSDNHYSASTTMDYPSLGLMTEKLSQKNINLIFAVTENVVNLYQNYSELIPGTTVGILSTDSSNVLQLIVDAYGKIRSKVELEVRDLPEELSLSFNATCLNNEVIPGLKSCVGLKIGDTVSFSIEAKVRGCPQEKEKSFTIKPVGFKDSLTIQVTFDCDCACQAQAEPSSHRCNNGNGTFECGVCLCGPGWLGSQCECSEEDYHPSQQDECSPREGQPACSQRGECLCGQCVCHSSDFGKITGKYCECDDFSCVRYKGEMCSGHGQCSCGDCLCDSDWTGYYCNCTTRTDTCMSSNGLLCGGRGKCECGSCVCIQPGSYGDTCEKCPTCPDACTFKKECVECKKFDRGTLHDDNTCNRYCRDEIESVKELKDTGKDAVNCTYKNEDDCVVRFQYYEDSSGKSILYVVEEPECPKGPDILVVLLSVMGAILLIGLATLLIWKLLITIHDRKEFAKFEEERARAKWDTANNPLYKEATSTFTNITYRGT
As to the kind of experiment: Inhibition of platelet aggregation, PRP/ADP. Type of assay: cell-based. The note with it: dog platelet rich plasma, 2 μM ADP, peptide added 3 min. prior to agonist; read-out: Antiaggregatory Activity IC50, μM PRP/ADP. As to the method: Blood was collected (citrated to prevent coagulation) from, naive, adult mongrel dogs. Platelet rich plasma, PRP, was prepared by centrifugation at 150×g for 10 min. at room temperature. Washed platelets were prepared by centrifuging PRP at 800×g for 10 min. The cell pellet thus obtained was washed twice in Tyrode's buffer (pH 6.5) without Ca^2+ and resuspended in Tyrode's buffer (pH 7.4) containing 1.8 mM Ca^2+ at […]. Peptides were added 3 min. prior to the agonist in all assays of platelet aggregation. Final agonist concentrations were 0.1 unit/ml thrombin and 2 μM ADP (Sigma). Aggregation was monitored in a Chrono-Log Lumi-Aggregometer. Light transmittance 5 min. after addition of the agonist was used to calculate percent aggregation according to the formula % aggregation=[(90-CR).div.(90-10)]×100, where CR is the chart reading, 90 is the baseline, and 10 is the PRP blank reading. IC50 's were determined by plotting [% inhibition of aggregation] vs. [concentration of peptide]. Peptides were assayed at 200 μM and diluted sequentially by a factor of 2 to establish a suitable dose response curve.
Regarding `CCN=C(NCC)NCCC[C@@H]1NC(=O)[C@@H](NC(C)=O)CSSC(C)(C)[C@@H](C(N)=O)NC(=O)[C@H](CC(=O)O)NC(=O)CNC1=O` [Example 24, N^α -Ac-Cyclo(S,S)Cys-(Et2)Arg-Gly-Asp-Pen-NH2] (HELM PEPTIDE1{[ac].C.[CCN=C(NCC)NCCC[C@H](N[*:1])C(=O)[*:2]].G.D.[Pen].[am]}$PEPTIDE1,PEPTIDE1,2:R3-6:R3$$$V2.0), the IC50 worked out at 81.7 µM.
For `CC(=O)N[C@@H](CCCN=C(N)N)C(=O)NCC(=O)N[C@@H](CC(=O)O)C(=O)N[C@H](C(N)=O)C(C)C` [Example 31, N^α -Ac-Arg-Gly-Asp-Val-NH2] (Ac-RGDV-NH2), the IC50 is 55.5 µM.
The figure for `CC(=O)N[C@H]1CSSC(C)(C)[C@@H](C(N)=O)NC(=O)[C@H](CC(=O)O)NC(=O)CNC(=O)[C@H](CCCNC(=N)N)NC1=O` [Example 10, N^α -Ac-Cyclo(S,S)Cys-Arg-Gly-Asp-Pen-NH2] (HELM PEPTIDE1{[ac].C.R.G.D.[Pen].[am]}$PEPTIDE1,PEPTIDE1,2:R3-6:R3$$$V2.0) is 4.12 µM.
Next, `CN(C=O)[C@@H](CCCNC(=N)N)C(=O)NCC(=O)N[C@@H](CC(=O)O)C(=O)N[C@@H](CO)C(N)=O` [Example 38, N^α -Formyl-MeArg-Gly-Asp-Ser-NH2] (HELM PEPTIDE1{[O=C[*:2]].[meR].G.D.S.[am]}$$$$V2.0): 6.9 µM.
The figure for `CC(=O)N[C@H]1CSSC[C@@H](C(N)=O)NC(=O)[C@H](CO)NC(=O)[C@H](CC(=O)O)NC(=O)CNC(=O)[C@H](CCCNC(=N)N)NC1=O` [Example 3, N^α -Ac-Cyclo(S,S) Cys-Arg-Gly-Asp-Ser-Cys-NH2] (HELM PEPTIDE1{[ac].C.R.G.D.S.C.[am]}$PEPTIDE1,PEPTIDE1,2:R3-7:R3$$$V2.0) is 32.7 µM.
For the compound “Gly-MeArg-Gly-Asp-Ser-NH2 (RGDS; N-terminal Gly-Me; C-terminal amide; printed: Arg-Gly-Asp-Ser-) [Example 39]”, the IC50 worked out at 12 µM.
As to `CN[C@@H](CCCNC(=N)N)C(=O)NCC(=O)N[C@@H](CC(=O)O)C(=O)N[C@@H](CO)C(N)=O` [Example 37, N^α -MeArg-Gly-Asp-Ser-NH2] (HELM PEPTIDE1{[meR].G.D.S.[am]}$$$$V2.0), the IC50 turned out to be 66.3 µM.
Take `CC(=O)N[C@H]1CSSC(C)(C)[C@@H](C(N)=O)NC(=O)[C@H](CC(=O)O)NC(=O)CNC(=O)[C@@H](CCCNC(=N)N)NC1=O` [Example 17, N^α -Ac-Cyclo(S,S)Cys-D-Arg-Gly-Asp-Pen-NH2] (HELM PEPTIDE1{[ac].C.[dR].G.D.[Pen].[am]}$PEPTIDE1,PEPTIDE1,2:R3-6:R3$$$V2.0): the IC50 turned out to be 4.1 µM.
Take `CCNC(=O)[C@H](CO)NC(=O)[C@H](CC(=O)O)NC(=O)CNC(=O)[C@H](CCCN=C(N)N)NC(C)=O` [Example 15, N^α -Ac-Arg-Gly-Asp-Ser-NHEt] (HELM PEPTIDE1{[ac].R.G.D.S.[CCN[*:1]]}$$$$V2.0): the IC50 is greater than 200 µM.
With “Ac-RRGDF-NH2 [Example 33, N^α -Ac-Arg-Arg-Gly-Asp-Phe-NH2]”, the IC50 was 113 µM.
The figure for “N^α -Ac-Cyclo(S,S)Cys-MeArg-Gly-Asp-Cys-NH2 (Ac-C[MeArg]GDC-NH2; disulfide N-5) [Example 8]” is 0.91 µM.
`CCNC(=O)[C@H]1NC(=O)[C@H](CC(=O)O)NC(=O)CNC(=O)[C@H](CCCNC(=N)N)NC(=O)[C@@H](NC(C)=O)CSSC1(C)C` [Example 16, N^α -Ac-Cyclo(S,S)Cys-Arg-Gly-Asp-Pen-NHEt] (HELM PEPTIDE1{[ac].C.R.G.D.[Pen].[CCN[*:1]]}$PEPTIDE1,PEPTIDE1,2:R3-6:R3$$$V2.0): the IC50 is 9.5 µM.
The figure for `CC(=O)N[C@@H](CCCN=C(N)N)C(=O)NCC(=O)N[C@@H](CC(=O)O)C(=O)NCCc1ccccc1` [Example 34, N^α -Ac-Arg-Gly-Asp-NH-CH -CH2 -C6 H5] is 75.9 µM.
`CC(=O)N[C@H]1CSSC(C)(C)[C@H](C(N)=O)NC(=O)[C@H](CC(=O)O)NC(=O)CNC(=O)[C@H](CCCNC(=N)N)NC1=O` [Example 11, N^α -Ac-Cyclo(S,S)Cys-Arg-Gly-Asp-D-Pen-NH2] (HELM PEPTIDE1{[ac].C.R.G.D.[CC(C)(S[*:3])[C@@H](N[*:1])C(=O)[*:2]].[am]}$PEPTIDE1,PEPTIDE1,2:R3-6:R3$$$V2.0): the IC50 was 20.3 µM.
The figure for `CC(=O)N[C@H]1CSSC(C)(C)[C@@H](C(N)=O)NC(=O)[C@H](CC(=O)O)NC(=O)CNC(=O)[C@H](CCCNC(=N)N)N(C)C1=O` [Example 14, N^α -Ac-Cyclo(S,S)Cys-MeArg-Gly-Asp-Pen-NH2] (HELM PEPTIDE1{[ac].C.[meR].G.D.[Pen].[am]}$PEPTIDE1,PEPTIDE1,2:R3-6:R3$$$V2.0) is 0.26 µM.
Regarding `CC(=O)N[C@H]1CSSC[C@@H](C(N)=O)NC(=O)[C@H](Cc2ccc(O)cc2)NC(=O)[C@H](CC(=O)O)NC(=O)CNC(=O)[C@H](CCCNC(=N)N)N(C)C1=O` [Example 18, N^α -Ac-Cyclo(S,S)Cys-MeArg-Gly-Asp-Tyr-Cys-NH2] (HELM PEPTIDE1{[ac].C.[meR].G.D.Y.C.[am]}$PEPTIDE1,PEPTIDE1,2:R3-7:R3$$$V2.0), the IC50 turned out to be 1.49 µM.
Next, `CC(=O)N[C@@H](CCCCNC(=N)N)C(=O)NCC(=O)N[C@@H](CC(=O)O)C(=O)N[C@@H](CO)C(N)=O` [Example 36, Ac-HArg-Gly-Asp-Ser-NH2] (HELM PEPTIDE1{[ac].[N=C(N)NCCCC[C@H](N[*:1])C(=O)[*:2]].G.D.S.[am]}$$$$V2.0): 68.2 µM.
In the case of `CC(=O)N[C@H]1CSSC(C)(C)[C@@H](C(N)=O)NC(=O)[C@H](CC(=O)O)NC(=O)CNC(=O)[C@H](CCCCNC(=N)N)NC1=O` [Example 13, N^α -Ac-Cyclo(S,S)Cys-HArg-Gly-Asp-Pen-NH2] (HELM PEPTIDE1{[ac].C.[N=C(N)NCCCC[C@H](N[*:1])C(=O)[*:2]].G.D.[Pen].[am]}$PEPTIDE1,PEPTIDE1,2:R3-6:R3$$$V2.0), the IC50 was determined as 3.85 µM.
Consider `CC(=O)N[C@H]1CSSC(C)(C)[C@@H](C(N)=O)NC(=O)[C@H](CC(=O)O)NC(=O)CNC(=O)[C@H](CCCCN)NC1=O` [Example 12, N^α -Ac-Cyclo(S,S)Cys-Lys-Gly-Asp-Pen-NH2] (HELM PEPTIDE1{[ac].C.K.G.D.[Pen].[am]}$PEPTIDE1,PEPTIDE1,2:R3-6:R3$$$V2.0), for which the IC50 turned out to be 55.3 µM.
